Target: T1, human V2 receptor (Homo sapiens, UniProt P30518)
T1 construct: A DNA fragment containing a human V2 receptor code region; expressed in transfected cells
Assay: cAMP production test in V2 receptor expression cell
Assay type: cell-based
Details: for EC50: human V2 receptor expression cell, 30 minutes at room temperature, HTRF cAMP kit; for Emax: maximum reaction by 8-AVP assumed to be 100%
Protocol: Pharmacological Test (1) Preparation of Human V2 Receptor Expression Cell
A DNA fragment containing a human V2 receptor code region was inserted into an expression vector of a vertebrate cell. The expression vector was genetically introduced into an animal cell to have the human V2 receptor express in the surface of the cell. Since the expression vector could express a neo gene which functions as a G418 resistance marker, it was cultured in a G418-containing medium, thereby selectively obtaining a human V2 receptor stable expression cell.
(2) cAMP Production Test in V2 Receptor Expression Cell
The human V2 receptor expression cell, which was prepared in the above described method, was recovered and resuspended into an incubation buffer (F-12 medium, 20 mM HEPES), and 5 μl of the cell was then divided into a 384-well plate with a density of 15,000 cells/well. 5 μl of a compound solution or an 8-AVP ((Arg^8)-vasopressin) solution, which was diluted with an assay buffer (F-12 medium, 20 mM HEPES, 1 mM IBMX), (total 10 μl/well) was added to each well (final concentration: 15,000 cells/well, 500 μM IBMX, 1% dimethyl sulfoxide). After incubation at room temperature for 30 minutes, a cAMP production amount was measured using a commercially available HTRF cAMP kit (Cisbio Inc.) according to the described protocol. Excel Fit was used in order to find EC50 and Emax values of the test compound.

T1 sequence (P30518 whole entry, the tested form may be a part): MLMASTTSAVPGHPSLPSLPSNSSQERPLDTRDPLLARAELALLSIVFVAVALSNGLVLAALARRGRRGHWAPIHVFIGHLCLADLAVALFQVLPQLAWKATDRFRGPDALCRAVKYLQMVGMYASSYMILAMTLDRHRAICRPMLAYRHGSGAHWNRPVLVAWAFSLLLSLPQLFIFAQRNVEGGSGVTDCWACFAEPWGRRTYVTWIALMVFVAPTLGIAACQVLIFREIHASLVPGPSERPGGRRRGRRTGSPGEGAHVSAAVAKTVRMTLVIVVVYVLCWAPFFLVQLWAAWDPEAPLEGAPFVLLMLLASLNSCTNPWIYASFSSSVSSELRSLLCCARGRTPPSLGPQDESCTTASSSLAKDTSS

SMILES | EC50 [nM] | Emax [%]
Cc1cc(N2CCC(C)C2)ccc1C(=O)N1CCC(F)(C(=O)NCC(N)=O)Cc2ccccc21 (racemic) [Example 95] | 0.99 | 102
CCCOc1ccc(C(=O)N2CCC(C)(C(=O)OC)Cc3ccccc32)c(Cl)c1 (racemic) [Example 32] | 9.1 | 104
CCN(CC)C(=O)CNC(=O)C1(C)CCN(C(=O)c2ccc(N3CCCC3)cc2Cl)c2ccccc2C1 (racemic) [Example 81] | 6.6 | 100
COC(=O)C1(C)CCN(C(=O)c2ccc(-c3ncco3)cc2Cl)c2ccccc2C1 (racemic) [Example 33] | 20 | 96
CC1(C(=O)NCc2nnco2)CCN(C(=O)c2ccc(N3CCCC3)cc2Cl)c2ccccc2C1 (racemic) [Example 82] | 1.1 | 101
CC1(C(=O)O)CCN(C(=O)c2ccc(-n3cccn3)cc2Cl)c2ccccc2C1 (racemic) [Example 52, 1-[2-chloro-4-(1H-pyrazol-1-yl)benzoyl]-4-methyl-2,3,4,5-tetrahydro-1H-benzo[b]azepine-4-carboxylic acid] | 3.9 | 85
CCCOc1ccc(C(=O)N2CCC(C)(C(=O)NC(C)CO)Cc3ccccc32)c(Cl)c1 (racemic) [Example 83] | 3.4 | 100
C[C@@H]1CN(C(=O)c2ccc(N3CCCC3)cc2Cl)c2ccccc2CC1C(=O)O (mixture of isomers) [Example 56, (3S)-1-[2-chloro-4-(pyrrolidine-1-yl)benzoyl]-3-methyl-2,3,4,5-tetrahydro-1H-benzo[b]azepine-4-carboxylic acid] | 0.1 | 102
CCNC(=O)CNC(=O)C1(C)CCN(C(=O)c2ccc(N3CCCC3)cc2Cl)c2ccccc2C1 (racemic) [Example 80] | 2.8 | 101
Cc1nnc(NC(=O)C2(C)CCN(C(=O)c3ccc(N4CCCC4)cc3Cl)c3ccccc3C2)o1 (racemic) [Example 79] | 0.9 | 100
COC(=O)C1(F)Cc2ccccc2N(C(=O)c2ccc(N3CCCC3)cc2Cl)CC1C (racemic) [Example 43] | 0.1 | 102
COC(=O)C1(C)CCN(C(=O)c2ccc(N3CCCC3)cc2Cl)c2ccccc2C1 (racemic) [Example 31] | 7.9 | 102
C[C@@H]1CN(C(=O)c2ccc(N3CCCC3)cc2Cl)c2ccccc2CC1(F)C(=O)O (mixture of isomers) [Example 57, (3R)-1-[2-chloro-4-(pyrrolidine-1-yl)benzoyl]-4-fluoro-3-methyl-2,3,4,5-tetrahydro-1H-benzo[b]azepine-4-carboxylic acid] | 0.2 | 102
CC(CO)NC(=O)C1(C)CCN(C(=O)c2ccc(-c3ncco3)cc2Cl)c2ccccc2C1 (racemic) [Example 85] | 15 | 94
CCCOc1ccc(C(=O)N2CCC(C)(C(=O)NCC(N)=O)Cc3ccccc32)c(Cl)c1 (racemic) [Example 84] | 2.5 | 100
CC1(C(=O)NCC(N)=O)CCN(C(=O)c2ccc(-n3cccn3)cc2Cl)c2ccccc2C1 (racemic) [Example 88] | 8.1 | 93
CC1CN(C(=O)c2ccc(N3CCCC3)cc2Cl)c2ccccc2CC1(F)C(=O)NCC(N)=O (racemic) [Example 101] | 1.1 | 102
CC(CO)NC(=O)C1Cc2ccccc2N(C(=O)c2ccc(N3CCCC3)cc2Cl)CC1C (racemic) [Example 98] | 1 | 101
COC(=O)C1(C)CCN(C(=O)c2ccc(-n3cccn3)cc2Cl)c2ccccc2C1 (racemic) [Example 34] | 9.8 | 98
CC(CO)NC(=O)C1(C)CCN(C(=O)c2ccc(-n3cccn3)cc2Cl)c2ccccc2C1 (racemic) [Example 87] | 9.5 | 97

The remaining compounds from weak to strong by EC50, led by results:

EC50 [nM] | Emax [%] | SMILES
17 | 88 | CC1(C(=O)NCC(N)=O)CCN(C(=O)c2ccc(-c3ncco3)cc2Cl)c2ccccc2C1 (racemic) [Example 86]
6 | 73 | CC1(C(=O)O)CCN(C(=O)c2ccc(-c3ncco3)cc2Cl)c2ccccc2C1 (racemic) [Example 51, 1-[2-chloro-4-(oxazol-2-yl)benzoyl]-4-methyl-2,3,4,5-tetrahydro-1H-benzo[b]azepine-4-carboxylic acid]
3 | 100 | CC(CO)NC(=O)C1(F)Cc2ccccc2N(C(=O)c2ccc(N3CCCC3)cc2Cl)CC1C (racemic) [Example 100]
1.9 | 100 | CC(C)C(NC(=O)C1(C)CCN(C(=O)c2ccc(OCCCF)cc2Cl)c2ccccc2C1)C(N)=O (racemic) [Example 73]
1.4 | 102 | COC(=O)C1(C)CCN(C(=O)c2ccc(-n3ccc(C)n3)cc2C(F)(F)F)c2ccccc2C1 (single isomer, unassigned) [Example 35]
0.99 | 102 | CC(NC(=O)C1(C)CCN(C(=O)c2ccc(OCC(F)(F)F)cc2Cl)c2ccccc2C1)C(N)=O (single isomer, unassigned) [Example 76]
0.9 | 100 | CCCOc1ccc(C(=O)N2CCC(C)(C(=O)O)Cc3ccccc32)c(Cl)c1 (racemic) [Example 50, 1-(2-chloro-4-propoxybenzoyl)-4-methyl-2,3,4,5-tetrahydro-1H-benzo[b]azepine-4-carboxylic acid]
0.8 | 103 | COC(=O)C1Cc2ccccc2N(C(=O)c2ccc(N3CCCC3)cc2Cl)CC1C (racemic) [Example 42]
0.74 | 102 | Cc1cc(N2CCCC2)ccc1C(=O)N1CCC(C)(C(=O)NC(C)C(N)=O)Cc2ccccc21 (single isomer, unassigned) [Example 68]
0.56 | 102 | Cc1ccn(-c2ccc(C(=O)N3CC(C)C(C)(C(=O)NCC(N)=O)Cc4ccccc43)c(C)c2)n1 (racemic) [Example 97]
0.53 | 101 | Cc1cc(N2CCC(C)C2)ccc1C(=O)N1CCC(C)(C(=O)NCC(N)=O)Cc2ccccc21 (racemic) [Example 69]
0.5 | 102 | CC1(C(=O)O)CCN(C(=O)c2ccc(N3CCCC3)cc2Cl)c2ccccc2C1 (racemic) [Example 49, 1-[2-chloro-4-(pyrrolidine-1-yl)benzoyl)-4-methyl-2,3,4,5-tetrahydro-1H-benzo[b]azepine-4-carboxylic acid]
0.41 | 101 | Cc1cc(N2CCC(C)C2)ccc1C(=O)N1CCC(F)(C(N)=O)Cc2ccccc21 (racemic) [Example 94]
0.4 | 102 | CC1CN(C(=O)c2ccc(N3CCCC3)cc2Cl)c2ccccc2CC1C(=O)NCC(N)=O (racemic) [Example 99]
0.34 | 102 | Cc1cc(N2CCCC2)ccc1C(=O)N1CCC(C)(C(=O)O)Cc2ccccc21 (single isomer, unassigned) [Example 45, 4-methyl-1-[2-methyl-4-(pyrrolidine-1-yl)benzoyl]-2,3,4,5-tetrahydro-1H-benzo[b]azepine-4-carboxylic acid]
0.28 | 102 | Cc1cc(N2CCCC2)ccc1C(=O)N1CCC(F)(C(=O)O)Cc2ccccc21 (single isomer, unassigned) [Example 54, 4-fluoro-1-[2-methyl-4-(pyrrolidine-1-yl)benzoyl]-2,3,4,5-tetrahydro-1H-benzo[b]azepine-4-carboxylic acid]
0.2 | 101 | Cc1ccn(-c2ccc(C(=O)N3C[C@@H](C)C(C)(C(=O)O)Cc4ccccc43)c(C)c2)n1 (mixture of isomers) [Example 55, (3S)-3,4-dimethyl-1-[2-methyl-4-(3-methyl-1H-pyrazol-1-yl)benzoyl]-2,3,4,5-tetrahydro-1H-benzo[b]azepine-4-carboxylic acid]
0.06 | 101 | COC(=O)C1(F)CCN(C(=O)c2ccc(N3CCCC3)cc2C)c2ccccc2C1 (single isomer, unassigned) [Example 38]

Source: patent US9586905B2, “Benzoazepine derivative and medical use thereof” (SANWA KAGAKU KENKYUSHO CO., LTD., priority 2012, dated 2017)
